How the values were obtained:
Type in all cases: cell-based
[1] = test system: Multi-drug resistant Pseudomonas aeruginosa (MDRP: ATCC BAA-2110); assay: HPLC measurement of coproporphyrinogen III (CPIII) and protoporphyrin IX (PpIX) in MDRP cultured with ALA / ALA + EDTA; conditions: 4 hours after start of culture, ALA 0.5 mg/ml, EDTA 400 mg/ml where added
Procedure: Multi-drug resistant Pseudomonas aeruginosa (MDRP: ATCC BAA-2110) was placed in tryptic soy broth medium (TBS: from DIFCO), and cultured at 37° C. for 24 hours. With an absorptiometer, the TBS medium comprising the cultured MDRP was adjusted to 1×10^9 CFU (Colony forming unit)/ml. In a 12-well plate, the following solutions (1)-(3) were each prepared and cultured. (1): TBS medium comprising MDRP adjusted to 1×10^9 CFU/ml, (2): a solution of (1) and ALA added to a final concentration of 0.5 mg/ml, and (3): a solution of (1) and ALA added to a final concentration of 0.5 mg/ml and EDTA added to a final concentration of 400 mg/ml. The solutions were collected 4 hours after the start of culture, and suspended in 0.25 ml of PBS per 1 g of the pelleted bacteria. To 0.2 ml of the suspension, 0.01 ml of 50% acetic acid and 0.9 ml of DMF/IPA (100:1) were added, vortexed, and separated by centrifugation (14, 000 rpm, 5 min, 4° C.). The concentrations of coproporphyrinogen III (CPIII) and protoporphyrin IX (PpIX) in the supernatant after centrifugal separation were measured with HPLC.

[2] = test system: Multi-drug resistant Pseudomonas aeruginosa (MDRP: ATCC BAA-2110); assay: Number of MDRP bacteria after ALA + EDTA with or without PDT (LED 410 nm); conditions: no PDT, 18 hours of culture, ALA 1 mg/ml, EDTA 400 mg/ml where added, start 1×10^9 CFU/ml
Procedure: Multi-drug resistant Pseudomonas aeruginosa (MDRP: ATCC BAA-2110) was cultured for 24 hours at 37° C. with tryptic soy broth medium (TBS: from DIFCO). Then, the TBS medium comprising MDRP at 1×10^9 CFU/ml was dispensed in a 12-well plate at 1 ml per well, and ALA was added to a final concentration of 1 mg/ml and EDTA was added to a final concentration of 400 mg/ml. These were divided into the group subjected to PDT (PDT group) and the group not subjected to PDT (non-PDT group) (each n=1). For the control group, only ALA at a final concentration of 1 mg/ml was added to 1 ml of the TBS medium comprising MDRP at 1×10^9 CFU/ml, and PDT was not carried out. The control group and the non-PDT group were cultured for 18 hours, and the number of bacteria in each well was counted. The PDT group was cultured for 18 hours, irradiated with LED (410 nm) at 50 J/cm^2, and then the number of bacteria was counted.

[3] = test system: Multi-drug resistant Pseudomonas aeruginosa (MDRP: BAA-2110); assay: Number of MDRP bacteria after ALA + chelating agent other than EDTA with or without LED irradiation (PDT); conditions: Irradiation No, average values
Procedure: Multi-drug resistant Pseudomonas aeruginosa (MDRP: BAA-2110) was cultured in tryptic soy broth medium (TBS: from DIFCO) for 24 hours at 37° C. Next, the TBS medium comprising MDRP was dispensed in a 12-well dish at 1 ml per well (1×10^4−2×10^5 CFU/mL). ALA at a final concentration of 1 mg/ml and a chelating agent other than EDTA (2.5 mg/mL of citric acid, 2.5 mg/mL of malic acid, 1 mg/mL of diethylenetriaminepentaacetic acid (DTPA), 1 mg/mL of triethylenetetramine-N,N,N′,N″,N′″,N″′-hexaacetic acid, 1 mg/mL of N-(2-hydroxyethyl) iminodiacetic acid, and 1 mg/mL of deferoxamine mesylate, each at final concentration) were added to each dish. For the control group, only ALA at a final concentration of 1 mg/ml was added to 1 ml of the TBS medium comprising MDRP. Next, these were cultured for 5 hours, and the number of bacteria in each well was counted. The PDT group was cultured for 5 hours, and then irradiated with LED (410 nm) at 50 J/cm^2, after which the number of bacteria was counted, and further the number of bacteria at 19 hours after irradiation was also counted.

[4] = supernatant of bacterial extract, HPLC

SMILES: NCC(=O)CCC(=O)O [ALA, 5-aminolevulinic acid]
- proportion of PpIX against CPIII [1]: approximately 5.5%
- CPIII [1, 4]: 889.6 nM
- PpIX [1, 4]: 49.0 nM
- Bacterial count (CFU/ml) ([2]; listed as Control): 4.2 × 10^9 CFU/ml
- Bacterial count (CFU/ml) ([2]; listed as control): 4.2×10^9 CFU/ml
- 5 hours after addition of ALA + chelating agent (CFU/mL) ([3]; ALA 1 mg/ml): 3.6 × 10^5 CFU/mL
- 19 hours after irradiation (CFU/mL) ([3]; ALA 1 mg/ml): 1.4 × 10^9 CFU/mL
- At the time of culture (CFU/mL) ([3]; starting count): 5.7 × 10^4 CFU/mL

— patent publication US9603928B2, “Medicinal composition for promoting synthesis of protoporphyrin IX” (SBI Pharmaceuticals Co., Ltd., priority 2013, dated 2017)
